Laboratory results taken from patent US20250296959A1, “B7-H3 TARGETING PEPTIDES AND CONSTRUCTS THEREOF” (Mariana Oncology Inc., priority 2024, published 2025).
Starred links: 1 amine or outer side, 2 acyl side, 3 side chain; linkers in the order of their positions; H or OH if unused. Positions of bridges follow the written chain, without caps; N, C: chain ends. Non-standard residues stand in square brackets, D forms with d. Residues, ends and D or L forms follow the SMILES beside them. Groups on a side chain read outwards from the residue. *: point of attachment. X2 = O=C(O)CN1CCN(CC(=O)O)CCN(CC(=O)NCCOCCOCCOCCOCC(=O)*)CCN(CC(=O)O)CC1; Ala(piperidin-4-yl) = O=C([C@H](CC1CCN([*:3])CC1)N[*:1])[*:2]; DOTA = O=C(O)CN1CCN(CC(=O)O)CCN(CC(=O)*)CCN(CC(=O)O)CC1; Phe(4-COOH) = N[C@@H](Cc1ccc(C(=O)O)cc1)C(=O)O; Trp(5-F) = N[C@@H](Cc1c[nH]c2ccc(F)cc12)C(=O)O; X1 = C[C@@H](c1ccccc1)[C@H](N[*:1])C(=O)[*:2]; Ala(4-THP) = N[C@@H](CC1CCOCC1)C(=O)O; Val(3-OH) = CC(C)(O)[C@H](N)C(=O)O; Cya = N[C@@H](CS(=O)(=O)O)C(=O)O; 4Pal = N[C@@H](Cc1ccncc1)C(=O)O; Gly(cPr) = N[C@H](C(=O)O)C1CC1; NMeK = CN[C@@H](CCCCN)C(=O)O; PEG4 = NCCOCCOCCOCCOCCC(=O)O; Tle = CC(C)(C)[C@H](N)C(=O)O; hLeu = CC(C)CC[C@H](N)C(=O)O; Nle = CCCC[C@H](N)C(=O)O; Sar = CNCC(=O)O

Each compound was assayed against T1, human 4lg B7-H3 (Homo sapiens, UniProt Q5ZPR3) (assay: Affinity determination by surface plasmon resonance (SPR) to 4Ig B7-H3). Details: SPR KD—25° C., 4Ig B7-H3; 25° C. flow cell temperature.
T1 sequence (Q5ZPR3 29-534): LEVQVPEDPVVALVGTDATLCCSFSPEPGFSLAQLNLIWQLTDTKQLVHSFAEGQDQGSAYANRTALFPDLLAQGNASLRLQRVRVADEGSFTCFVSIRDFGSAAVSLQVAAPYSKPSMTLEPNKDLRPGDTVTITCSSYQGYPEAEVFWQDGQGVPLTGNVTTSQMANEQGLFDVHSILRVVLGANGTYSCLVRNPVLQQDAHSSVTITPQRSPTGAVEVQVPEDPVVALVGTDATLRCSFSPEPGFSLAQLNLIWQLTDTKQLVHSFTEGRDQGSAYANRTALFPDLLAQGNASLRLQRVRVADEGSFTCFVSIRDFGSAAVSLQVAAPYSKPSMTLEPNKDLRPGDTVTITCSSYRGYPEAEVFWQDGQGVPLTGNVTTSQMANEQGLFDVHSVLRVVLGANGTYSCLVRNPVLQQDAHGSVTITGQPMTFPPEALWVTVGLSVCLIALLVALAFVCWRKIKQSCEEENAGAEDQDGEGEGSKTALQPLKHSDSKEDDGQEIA

Compound	Kd [µM]
CCCC[C@H](NC(=O)[C@H](Cc1c[nH]c2ccc(F)cc12)NC(=O)[C@@H]1CSSC[C@H](NC(=O)[C@H](Cc2ccc(O)cc2)NC(=O)[C@H](CCC(C)C)NC(C)=O)C(=O)N[C@@H](C(C)(C)C)C(=O)NCC(=O)N[C@@H](CCCCN)C(=O)N[C@@H](CC2CCOCC2)C(=O)N[C@@H](CC(=O)O)C(=O)N[C@@H](C(C)C)C(=O)N[C@@H](Cc2ccc(O)cc2)C(=O)N1)C(=O)N[C@H](C(=O)N[C@H](CCCCNC(=O)CN1CCN(CC(=O)O)CCN(CC(=O)O)CCN(CC(=O)O)CC1)C(=O)O)[C@@H](C)O [compound 333, Ac-hLeu-Y-C-Tbg-G-K-ThpA-D-V-Y-C-5FW-Nle-Thr-dLys(DOTA)-COOH] (Ac-[hLeu]YC[Tle]GK[Ala(4-THP)]DVYC[Trp(5-F)][Nle]T[dK](DOTA)-OH; disulfide 3-11)	0.01 to 0.1
CC(=O)N[C@@H](CCC(C)C)C(=O)N[C@@H](Cc1ccc(O)cc1)C(=O)N[C@H]1CSSC[C@@H](C(=O)N[C@@H](Cc2c[nH]c3ccccc23)C(=O)N[C@@H](Cc2ccccc2)C(=O)N[C@H](C(=O)N[C@H](CCCCNC(=O)CN2CCN(CC(=O)O)CCN(CC(=O)O)CCN(CC(=O)O)CC2)C(N)=O)[C@@H](C)O)NC(=O)[C@H](Cc2ccc(O)cc2)NC(=O)[C@H](C(C)C)NC(=O)[C@H](CC(=O)O)NC(=O)[C@H](Cc2ccncc2)NC(=O)[C@H](CCCCN)NC(=O)CNC(=O)[C@H](C(C)C)NC1=O [compound 155, Ac-hLeu-Y-C-V-G-K-4PyA-D-V-Y-C-W-F-Thr-dLys(DOTA)-CONH2] (Ac-[hLeu]YCVGK[4Pal]DVYCWFT[dK](DOTA)-NH2; disulfide 3-11)	< 0.001
CC(=O)N[C@@H](CCC(C)C)C(=O)N[C@@H](Cc1ccc(O)cc1)C(=O)N[C@H]1CSSC[C@@H](C(=O)N[C@@H](Cc2c[nH]c3ccccc23)C(=O)N[C@@H](Cc2ccccc2)C(=O)N[C@H](C(=O)N[C@H](CCCCNC(=O)CN2CCN(CC(=O)O)CCN(CC(=O)O)CCN(CC(=O)O)CC2)C(N)=O)[C@@H](C)O)NC(=O)[C@H](Cc2ccc(O)cc2)NC(=O)[C@H](C(C)C)NC(=O)[C@H](CC(=O)O)NC(=O)[C@H](Cc2ccc(O)cc2)NC(=O)[C@H](CCCCN)NC(=O)CNC(=O)[C@H](C2CC2)NC1=O [compound 119, Ac-hLeu-Y-C-Cpg-G-K-Y-D-V-Y-C-W-F-Thr-dLys(DOTA)-CONH2] (Ac-[hLeu]YC[Gly(cPr)]GKYDVYCWFT[dK](DOTA)-NH2; disulfide 3-11)	0.01 to 0.1
CCCC[C@H](NC(C)=O)C(=O)N[C@@H](Cc1ccc(O)cc1)C(=O)N[C@H]1CSSC[C@@H](C(=O)N[C@@H](Cc2c[nH]c3ccccc23)C(=O)N[C@@H](Cc2ccccc2)C(N)=O)NC(=O)[C@H](Cc2ccc(O)cc2)NC(=O)[C@H](C(C)C)NC(=O)[C@H](CC(=O)O)NC(=O)[C@H](Cc2ccc(O)cc2)NC(=O)[C@H](CCCCN)NC(=O)CN(C)C(=O)[C@H](C(C)C)NC1=O [compound 26, Ac-Nle-Y-C-V-Sar-K-Y-D-V-Y-C-W-F-CONH2] (Ac-[Nle]YCV[Sar]KYDVYCWF-NH2; disulfide 3-11)	0.01 to 0.1

Continued, values first:

Kd [µM]	Compound
0.01 to 0.1	CC(=O)N[C@@H](CCC(C)C)C(=O)N[C@@H](Cc1ccc(O)cc1)C(=O)N[C@H]1CSSC[C@@H](C(=O)N[C@@H](Cc2c[nH]c3ccc(F)cc23)C(=O)N[C@@H](Cc2ccccc2)C(=O)N[C@H](C(=O)N[C@H](CCCCNC(=O)CN2CCN(CC(=O)O)CCN(CC(=O)O)CCN(CC(=O)O)CC2)C(=O)O)[C@@H](C)O)NC(=O)[C@H](Cc2ccc(O)cc2)NC(=O)[C@H](C(C)C)NC(=O)[C@H](CC(=O)O)NC(=O)[C@H](CC2CCOCC2)NC(=O)[C@H](CCCCN)N(C)C(=O)CNC(=O)[C@H](C(C)(C)C)NC1=O [compound 352, Ac-hLeu-Y-C-Tbg-G-NMeLys-ThpA-D-V-Y-C-5FW-F-Thr-dLys(DOTA)-COOH] (Ac-[hLeu]YC[Tle]G[NMeK][Ala(4-THP)]DVYC[Trp(5-F)]FT[dK](DOTA)-OH; disulfide 3-11)
0.01 to 0.1	CC(=O)N[C@@H](CCC(C)C)C(=O)N[C@@H](Cc1ccc(O)cc1)C(=O)N[C@H]1CSSC[C@@H](C(=O)N[C@@H](Cc2c[nH]c3ccccc23)C(=O)N[C@@H](Cc2ccccc2)C(=O)N[C@H](C(=O)N[C@H](CCCCNC(=O)CN2CCN(CC(=O)O)CCN(CC(=O)O)CCN(CC(=O)O)CC2)C(N)=O)[C@@H](C)O)NC(=O)[C@H](Cc2ccc(O)cc2)NC(=O)[C@H](C(C)C)NC(=O)[C@H](CC(=O)O)NC(=O)[C@H](Cc2ccc(O)cc2)NC(=O)[C@H](CCCCN)NC(=O)CNC(=O)[C@H](C(C)(C)O)NC1=O [compound 122, Ac-hLeu-Y-C-hydroVal-G-K-Y-D-V-Y-C-W-F-Thr-dLys(DOTA)-CONH2] (Ac-[hLeu]YC[Val(3-OH)]GKYDVYCWFT[dK](DOTA)-NH2; disulfide 3-11)
0.001 to 0.01	CC(=O)N[C@@H](CCC(C)C)C(=O)N[C@@H](Cc1ccc(O)cc1)C(=O)N[C@H]1CSSC[C@@H](C(=O)N[C@@H](Cc2c[nH]c3ccc(F)cc23)C(=O)N[C@@H](Cc2ccccc2)C(=O)N2CCC[C@H]2C(=O)N[C@H](CCCCNC(=O)COCCOCCOCCOCCNC(=O)CN2CCN(CC(=O)O)CCN(CC(=O)O)CCN(CC(=O)O)CC2)C(=O)O)NC(=O)[C@H](Cc2ccc(O)cc2)NC(=O)[C@H](C(C)C)NC(=O)[C@H](CC(=O)O)NC(=O)[C@H](CC2CCOCC2)NC(=O)[C@H](CCCCN)NC(=O)CNC(=O)[C@H](C(C)(C)C)NC1=O [compound 307, Ac-hLeu-Y-C-Tbg-G-K-ThpA-D-V-Y-C-5FW-F-Pro-dLys(PEG4-DOTA)-COOH] (Ac-[hLeu]YC[Tle]GK[Ala(4-THP)]DVYC[Trp(5-F)]FP[dK](X2)-OH; disulfide 3-11)
< 0.001	CC(=O)N[C@@H](CCC(C)C)C(=O)N[C@@H](Cc1ccc(O)cc1)C(=O)N[C@H]1CSSC[C@@H](C(=O)N[C@@H](Cc2c[nH]c3ccc(F)cc23)C(=O)N[C@@H](Cc2ccccc2)C(=O)N[C@H](C(=O)N[C@H](CCCCNC(=O)CN2CCN(CC(=O)O)CCN(CC(=O)O)CCN(CC(=O)O)CC2)C(N)=O)[C@@H](C)O)NC(=O)[C@H](Cc2ccc(O)cc2)NC(=O)[C@H](C(C)C)NC(=O)[C@H](CC(=O)O)NC(=O)[C@H](Cc2ccncc2)NC(=O)[C@H](CCCCN)NC(=O)CNC(=O)[C@H](C(C)C)NC1=O [compound 240, Ac-hLeu-Y-C-V-G-K-4PyA-D-V-Y-C-5FW-F-Thr-dLys(DOTA)-CONH2] (Ac-[hLeu]YCVGK[4Pal]DVYC[Trp(5-F)]FT[dK](DOTA)-NH2; disulfide 3-11)

Same assay, conditions: SPR KD—37° C., 4Ig B7-H3; 37° C. flow cell temperature

Kd [µM]	Compound
< 0.001	CC(=O)N[C@@H](CCC(C)C)C(=O)N[C@@H](Cc1ccc(O)cc1)C(=O)N[C@H]1CSSC[C@@H](C(=O)N[C@@H](Cc2c[nH]c3ccc(F)cc23)C(=O)N[C@@H](Cc2ccccc2)C(=O)N2CCC[C@H]2C(=O)N[C@H](CCCCNC(=O)CN2CCN(CC(=O)O)CCN(CC(=O)O)CCN(CC(=O)O)CC2)C(=O)O)NC(=O)[C@H](Cc2ccc(O)cc2)NC(=O)[C@H](C(C)C)NC(=O)[C@H](CC(=O)O)NC(=O)[C@H](Cc2ccc(C(=O)O)cc2)NC(=O)[C@H](CC2CCNCC2)NC(=O)CNC(=O)[C@H](C(C)C)NC1=O [compound 313, Ac-hLeu-Y-C-V-G-PipAla-4COOHPhe-D-V-Y-C-5FW-F-Pro-dLys(DOTA)-COOH] (Ac-[hLeu]YCVG[Ala(piperidin-4-yl)][Phe(4-COOH)]DVYC[Trp(5-F)]FP[dK](DOTA)-OH; disulfide 3-11)
< 0.001	CC(=O)N[C@@H](CCC(C)C)C(=O)N[C@@H](Cc1ccc(O)cc1)C(=O)N[C@H]1CSSC[C@@H](C(=O)N[C@@H](Cc2c[nH]c3ccc(F)cc23)C(=O)N[C@H](C(=O)N[C@H](C(=O)N[C@H](CCCCNC(=O)CN2CCN(CC(=O)O)CCN(CC(=O)O)CCN(CC(=O)O)CC2)C(=O)O)C(C)(C)O)[C@@H](C)c2ccccc2)NC(=O)[C@H](Cc2ccc(O)cc2)NC(=O)[C@H](C(C)C)NC(=O)[C@H](CS(=O)(=O)O)NC(=O)[C@H](CC2CCOCC2)NC(=O)[C@H](CC2CCNCC2)NC(=O)CNC(=O)[C@H](C(C)(C)C)NC1=O [compound 524, Ac-hLeu-Y-C-Tbg-G-PipAla-ThpA-CysAcid-V-Y-C-5FW-[(2S, 3S)beta-Me-Phe]-hydroxyVal-dLys(DOTA)-COOH] (Ac-[hLeu]YC[Tle]G[Ala(piperidin-4-yl)][Ala(4-THP)][Cya]VYC[Trp(5-F)][X1][Val(3-OH)][dK](DOTA)-OH; disulfide 3-11)
< 0.001	CC(=O)N[C@@H](CCC(C)C)C(=O)N[C@@H](Cc1ccc(O)cc1)C(=O)N[C@H]1CSSC[C@@H](C(=O)N[C@@H](Cc2c[nH]c3ccc(F)cc23)C(=O)N[C@@H](Cc2ccccc2)C(=O)N[C@H](C(=O)N[C@H](CO)C(=O)O)C(C)(C)O)NC(=O)[C@H](Cc2ccc(O)cc2)NC(=O)[C@H](C(C)C)NC(=O)[C@H](CC(=O)O)NC(=O)[C@H](CC2CCN(C(=O)CCOCCOCCOCCOCCNC(=O)CN3CCN(CC(=O)O)CCN(CC(=O)O)CCN(CC(=O)O)CC3)CC2)NC(=O)[C@H](CC2CCNCC2)NC(=O)CNC(=O)[C@H](C(C)(C)C)NC1=O [compound 483, Ac-hLeu-Y-C-Tbg-G-PipAla-Pip(PEG4-DOTA)Ala-D-V-Y-C-5FW-F-hydroxyVal-dSer-COOH] (Ac-[hLeu]YC[Tle]G[Ala(piperidin-4-yl)][Ala(piperidin-4-yl)]([PEG4-DOTA])DVYC[Trp(5-F)]F[Val(3-OH)][dS]-OH; disulfide 3-11)
0.01 to 0.1	CCCC[C@H](NC(C)=O)C(=O)N[C@@H](Cc1ccc(O)cc1)C(=O)N[C@H]1CSSC[C@@H](C(=O)N[C@@H](Cc2c[nH]c3ccccc23)C(=O)N[C@@H](Cc2ccccc2)C(N)=O)NC(=O)[C@H](Cc2ccc(O)cc2)NC(=O)[C@H](C(C)C)NC(=O)[C@H](CC(=O)O)NC(=O)[C@H](Cc2ccc(O)cc2)NC(=O)[C@H](CCCCN)NC(=O)CN(C)C(=O)[C@H](C(C)C)NC1=O [compound 26, Ac-Nle-Y-C-V-Sar-K-Y-D-V-Y-C-W-F-CONH2] (Ac-[Nle]YCV[Sar]KYDVYCWF-NH2; disulfide 3-11)
